This note sets out measurements from article PMC5740388, “In Vitro Antibacterial Properties of Cefiderocol, a Novel Siderophore Cephalosporin, against Gram-Negative Bacteria” (Antimicrobial Agents and Chemotherapy, 2017).

Where two headings read alike, the source gives them in different places. Bounds are passed on as bounds.

Holding throughout (assay): competition with […]benzylpenicillin for PBPs
Common to all, as to assay type: binding

The target of assay [1] is T1, PBP2 of P. aeruginosa ATCC 27853 (Pseudomonas aeruginosa, UniProt Q9X6V3).
T1 construct: gene pbpA
T1 sequence (Q9X6V3 1-646): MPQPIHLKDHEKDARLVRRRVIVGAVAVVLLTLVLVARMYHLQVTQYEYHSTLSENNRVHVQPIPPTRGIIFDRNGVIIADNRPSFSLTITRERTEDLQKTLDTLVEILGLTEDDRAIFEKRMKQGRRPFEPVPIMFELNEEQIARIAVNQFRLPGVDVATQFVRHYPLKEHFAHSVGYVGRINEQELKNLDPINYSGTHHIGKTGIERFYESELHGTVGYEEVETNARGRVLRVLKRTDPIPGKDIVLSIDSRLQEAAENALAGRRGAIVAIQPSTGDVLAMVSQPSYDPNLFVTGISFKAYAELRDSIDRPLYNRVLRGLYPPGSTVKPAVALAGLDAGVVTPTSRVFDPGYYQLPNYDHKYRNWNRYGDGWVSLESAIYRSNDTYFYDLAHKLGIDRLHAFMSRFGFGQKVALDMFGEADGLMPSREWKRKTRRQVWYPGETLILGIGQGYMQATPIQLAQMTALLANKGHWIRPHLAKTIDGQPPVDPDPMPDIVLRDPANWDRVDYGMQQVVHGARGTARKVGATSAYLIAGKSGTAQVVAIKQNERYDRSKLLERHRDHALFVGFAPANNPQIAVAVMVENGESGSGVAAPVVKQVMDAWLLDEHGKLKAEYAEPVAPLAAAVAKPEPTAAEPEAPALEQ
As to conditions: covalent; read-out: IC50 (μg/ml) / E. coli NIHJ JC-2 / Ceftazidime.

Assay [2] deals with T2, PBP1a of P. aeruginosa ATCC 27853 (Pseudomonas aeruginosa, UniProt Q07806).
T2 construct: gene mrcA
T2 sequence (Q07806 whole entry): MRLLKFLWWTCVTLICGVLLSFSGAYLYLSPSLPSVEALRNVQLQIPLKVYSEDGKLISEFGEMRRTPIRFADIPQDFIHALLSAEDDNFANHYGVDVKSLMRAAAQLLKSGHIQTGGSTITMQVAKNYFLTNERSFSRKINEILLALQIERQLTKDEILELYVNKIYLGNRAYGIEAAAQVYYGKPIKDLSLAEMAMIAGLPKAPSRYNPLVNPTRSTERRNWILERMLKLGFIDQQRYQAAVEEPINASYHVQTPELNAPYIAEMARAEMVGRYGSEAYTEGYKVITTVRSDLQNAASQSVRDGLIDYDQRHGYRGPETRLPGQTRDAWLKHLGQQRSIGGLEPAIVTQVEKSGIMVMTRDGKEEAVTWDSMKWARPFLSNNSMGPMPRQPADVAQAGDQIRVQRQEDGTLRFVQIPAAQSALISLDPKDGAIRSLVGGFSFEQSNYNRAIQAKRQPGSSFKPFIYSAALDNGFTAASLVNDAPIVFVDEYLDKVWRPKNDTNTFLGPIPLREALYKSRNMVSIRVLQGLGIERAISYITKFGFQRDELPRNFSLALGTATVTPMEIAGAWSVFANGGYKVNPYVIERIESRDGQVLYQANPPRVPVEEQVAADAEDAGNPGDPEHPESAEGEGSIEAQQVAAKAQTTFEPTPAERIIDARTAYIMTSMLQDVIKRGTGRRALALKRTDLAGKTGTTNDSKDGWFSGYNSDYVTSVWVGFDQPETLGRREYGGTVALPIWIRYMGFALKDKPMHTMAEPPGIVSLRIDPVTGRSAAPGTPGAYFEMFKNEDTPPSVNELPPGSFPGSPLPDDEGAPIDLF
As to conditions: covalent.

In assay [3] the target is T3, PBP4 of P. aeruginosa ATCC 27853 (Pseudomonas aeruginosa, UniProt Q9HZG1).
T3 construct: gene PA3047
T3 sequence (Q9HZG1 entry or part of it): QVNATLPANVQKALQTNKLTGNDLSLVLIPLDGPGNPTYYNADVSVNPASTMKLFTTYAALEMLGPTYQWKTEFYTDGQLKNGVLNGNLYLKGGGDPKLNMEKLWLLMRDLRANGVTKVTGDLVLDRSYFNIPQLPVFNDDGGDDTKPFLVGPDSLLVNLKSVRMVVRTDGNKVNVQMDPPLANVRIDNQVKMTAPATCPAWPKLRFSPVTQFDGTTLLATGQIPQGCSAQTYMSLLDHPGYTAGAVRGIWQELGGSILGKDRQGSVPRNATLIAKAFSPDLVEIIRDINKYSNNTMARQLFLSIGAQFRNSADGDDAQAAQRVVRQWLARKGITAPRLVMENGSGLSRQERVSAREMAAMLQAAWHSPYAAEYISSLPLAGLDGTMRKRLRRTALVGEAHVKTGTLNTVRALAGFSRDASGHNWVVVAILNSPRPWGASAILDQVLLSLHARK
As to conditions: covalent; read-out: IC50 (μg/ml) / P. aeruginosa ATCC 27853 / Cefiderocol.

Assay [4] deals with T4, PBP1a of E. coli NIHJ JC-2 (Escherichia coli, UniProt P02918).
T4 construct: gene mrcA
T4 sequence (P02918 whole entry): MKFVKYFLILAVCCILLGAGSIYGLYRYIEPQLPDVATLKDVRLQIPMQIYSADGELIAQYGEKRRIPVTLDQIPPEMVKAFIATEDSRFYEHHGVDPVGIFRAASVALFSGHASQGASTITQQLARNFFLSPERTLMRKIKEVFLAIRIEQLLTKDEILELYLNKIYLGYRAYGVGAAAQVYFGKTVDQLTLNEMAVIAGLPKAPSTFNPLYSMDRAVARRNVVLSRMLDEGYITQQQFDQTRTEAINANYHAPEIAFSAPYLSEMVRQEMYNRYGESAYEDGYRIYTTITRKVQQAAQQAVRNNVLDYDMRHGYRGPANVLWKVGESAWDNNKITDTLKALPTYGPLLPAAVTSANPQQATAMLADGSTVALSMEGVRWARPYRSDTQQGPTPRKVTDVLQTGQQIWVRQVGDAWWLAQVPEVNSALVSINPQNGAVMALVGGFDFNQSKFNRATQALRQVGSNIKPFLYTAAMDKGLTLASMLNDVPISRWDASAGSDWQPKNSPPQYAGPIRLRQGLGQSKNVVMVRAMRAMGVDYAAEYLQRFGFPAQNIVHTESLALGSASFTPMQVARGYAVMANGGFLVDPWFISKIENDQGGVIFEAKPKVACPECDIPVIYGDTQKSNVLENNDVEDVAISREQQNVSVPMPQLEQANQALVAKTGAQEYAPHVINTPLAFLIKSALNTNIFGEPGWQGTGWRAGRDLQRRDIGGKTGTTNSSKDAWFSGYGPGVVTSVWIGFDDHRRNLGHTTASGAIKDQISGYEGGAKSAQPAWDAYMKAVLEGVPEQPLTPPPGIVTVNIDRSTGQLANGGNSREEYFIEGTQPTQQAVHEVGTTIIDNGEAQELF
As to conditions: covalent.

The target in assay [5] is T5, PBP3 of E. coli NIHJ JC-2 (Escherichia coli, UniProt P0AD68).
T5 construct: gene ftsI
T5 sequence (P0AD68 1-577): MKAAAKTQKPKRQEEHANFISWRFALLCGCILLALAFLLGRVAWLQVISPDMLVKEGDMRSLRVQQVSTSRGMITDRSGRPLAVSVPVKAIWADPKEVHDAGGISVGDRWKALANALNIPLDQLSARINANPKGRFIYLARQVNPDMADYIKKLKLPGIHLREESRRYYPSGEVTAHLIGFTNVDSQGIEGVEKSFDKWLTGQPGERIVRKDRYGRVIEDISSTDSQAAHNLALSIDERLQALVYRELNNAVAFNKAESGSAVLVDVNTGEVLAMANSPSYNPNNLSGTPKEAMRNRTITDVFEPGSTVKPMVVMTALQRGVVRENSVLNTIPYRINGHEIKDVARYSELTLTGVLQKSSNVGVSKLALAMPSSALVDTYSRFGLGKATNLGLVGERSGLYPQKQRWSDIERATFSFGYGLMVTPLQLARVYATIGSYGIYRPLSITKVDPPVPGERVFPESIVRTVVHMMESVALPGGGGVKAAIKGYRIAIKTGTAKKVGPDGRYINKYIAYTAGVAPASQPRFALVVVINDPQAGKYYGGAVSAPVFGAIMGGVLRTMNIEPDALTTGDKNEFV
As to conditions: covalent.

The target in assay [6] is T6, PBP2 of E. coli NIHJ JC-2 (Escherichia coli, UniProt P0AD65).
T6 construct: gene mrdA
T6 sequence (P0AD65 1-633): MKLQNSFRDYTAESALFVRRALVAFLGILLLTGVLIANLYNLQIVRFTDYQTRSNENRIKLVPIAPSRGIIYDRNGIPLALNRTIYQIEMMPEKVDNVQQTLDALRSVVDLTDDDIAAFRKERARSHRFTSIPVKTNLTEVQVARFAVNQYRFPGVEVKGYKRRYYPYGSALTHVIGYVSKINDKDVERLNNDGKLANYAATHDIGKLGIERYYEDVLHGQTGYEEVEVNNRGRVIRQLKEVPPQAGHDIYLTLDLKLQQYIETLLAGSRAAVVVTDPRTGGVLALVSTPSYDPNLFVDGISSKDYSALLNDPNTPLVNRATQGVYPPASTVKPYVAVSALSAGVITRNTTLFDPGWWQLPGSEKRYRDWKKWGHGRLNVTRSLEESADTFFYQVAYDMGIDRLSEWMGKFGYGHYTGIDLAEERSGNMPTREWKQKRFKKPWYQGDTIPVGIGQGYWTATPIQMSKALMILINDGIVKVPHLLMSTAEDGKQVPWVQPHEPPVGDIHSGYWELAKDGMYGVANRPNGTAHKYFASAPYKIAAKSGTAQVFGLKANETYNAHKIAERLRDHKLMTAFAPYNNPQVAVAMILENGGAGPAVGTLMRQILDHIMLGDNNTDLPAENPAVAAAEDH
As to conditions: covalent.

Assay [7] deals with T7, PBP2 of K. pneumoniae SR22291 (Klebsiella pneumoniae, UniProt A6T696).
T7 construct: gene mrdA
T7 sequence (A6T696 1-633): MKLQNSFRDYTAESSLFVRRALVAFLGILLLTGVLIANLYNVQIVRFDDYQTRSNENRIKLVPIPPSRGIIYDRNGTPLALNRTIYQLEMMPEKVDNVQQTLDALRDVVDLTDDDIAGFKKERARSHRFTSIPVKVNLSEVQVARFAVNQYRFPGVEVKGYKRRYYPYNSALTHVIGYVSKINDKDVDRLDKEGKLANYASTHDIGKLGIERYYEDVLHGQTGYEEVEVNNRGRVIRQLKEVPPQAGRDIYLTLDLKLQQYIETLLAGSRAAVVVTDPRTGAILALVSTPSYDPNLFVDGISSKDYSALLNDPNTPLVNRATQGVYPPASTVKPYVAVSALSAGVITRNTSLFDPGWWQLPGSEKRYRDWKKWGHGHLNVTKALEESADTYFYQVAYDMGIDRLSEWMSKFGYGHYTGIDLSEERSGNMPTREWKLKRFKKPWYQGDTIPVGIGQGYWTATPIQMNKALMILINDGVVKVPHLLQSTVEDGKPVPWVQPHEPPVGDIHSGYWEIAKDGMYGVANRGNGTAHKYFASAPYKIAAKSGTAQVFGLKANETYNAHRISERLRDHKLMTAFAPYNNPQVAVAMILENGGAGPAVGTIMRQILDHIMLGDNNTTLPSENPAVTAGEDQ
As to conditions: covalent.

[8] abbreviates: read-out: IC50 (μg/ml) / E. coli NIHJ JC-2 / Cefiderocol (converted).
Where [9] appears, read: read-out: IC50 (μg/ml) / E. coli NIHJ JC-2 / Ceftazidime.

As for `CC(C)(O/N=C(\C(=O)N[C@@H]1C(=O)N2C(C(=O)[O-])=C(C[N+]3(CCNC(=O)c4ccc(O)c(O)c4Cl)CCCC3)CS[C@H]12)c1csc(N)n1)C(=O)O` [cefiderocol], the IC50 in assay [1] is above 5320 nM; in assay [2] (read-out: IC50 (μg/ml) / P. aeruginosa ATCC 27853 / Cefiderocol (converted)), 1130 nM; in assay [3], above 5320 nM; in assay [4] (setting [8]), 5050 nM; in assay [5] (setting [8]), 53.2 nM; in assay [6] (setting [8]), 2820 nM. In addition, in assay [7] (read-out: IC50 (μg/ml) / K. pneumoniae SR22291 / Cefiderocol (converted)), the IC50 is 83.8 nM.
As to `CC(C)(O/N=C(\C(=O)N[C@@H]1C(=O)N2C(C(=O)[O-])=C(C[n+]3ccccc3)CS[C@H]12)c1csc(N)n1)C(=O)O` [ceftazidime], the IC50 in assay [1] is above 7320 nM; in assay [2] (read-out: IC50 (μg/ml) / P. aeruginosa ATCC 27853 / Ceftazidime (converted)), 6620 nM; in assay [3], above 7320 nM; in assay [4] (setting [9]) it was above 7320 nM; in assay [5] (read-out: IC50 (μg/ml) / E. coli NIHJ JC-2 / Ceftazidime (converted)) it was 823 nM; in assay [6] (setting [9]), above 7320 nM. In assay [7] (read-out: IC50 (μg/ml) / K. pneumoniae SR22291 / Ceftazidime (converted)), the IC50 was 750 nM.
